Numbered stars: 1 amine (or outer) side, 2 acyl side, 3 side chain; on linkers, the order of the positions; unused ones are H or OH. Bridge positions count the residues as written; N and C are the ends. Square brackets hold non-standard residues; d marks the D form. Peptide text beside a SMILES is read from it. * marks the point of attachment. ξ: configuration not given here. ξOrn(4,5-diOH) = O=C(C(CC(O)C(O)N[*:3])N[*:1])[*:2]; ξhTyr(βξ-OH,γξ-OH) = NC(C(=O)O)C(O)C(O)c1ccc(O)cc1; X1 = O=C(C1C(O)C(CO)CN1[*:1])[*:2]; Palmitoyl = CCCCCCCCCCCCCCCC(=O)*; Hyp = O=C(O)[CH]1C[CH](O)CN1
Experiments:
[1] = tested on: Cryptococcus neoformans; assay: MIC, microbroth dilution assay (NCCLS); assay type: cell-based
[2] = tested on: Aspergillus fumigatus; assay: MIC, microbroth dilution assay (NCCLS); assay type: cell-based
[3] = tested on: Candida albicans; assay: MIC, microbroth dilution assay (NCCLS); assay type: cell-based
[4] = tested on: Candida parasilopsis; assay: MIC, microbroth dilution assay (NCCLS); assay type: cell-based
[5] = tested on: Histoplasma capsulatum; assay type: cell-based
[6] = tested on: nail and skin infections; assay: Nail and skin infections with human volunteers; assay type: in vivo

| Molecule | Minimum Inhibitory Concentration [1] [µg/mL] | Minimum Inhibitory Concentration [2] [µg/mL] | Minimum Inhibitory Concentration [3] [µg/mL] | Minimum Inhibitory Concentration [4] [µg/mL] | Minimum Inhibitory Concentration [5] [µg/mL] | effect on fungus (in words) [1] | effect on fungus (in words) [2] | results on nail and skin infections [6] |
| --- | --- | --- | --- | --- | --- | --- | --- | --- |
| Echinocandin B [reference compound] | >20 | >20 | 0.3 |  |  |  |  |  |
| C[C@@H]1[C@H](O)[C@@H](C)/C=C/C=C/C=C/C=C/C=C/C=C/C=C/[C@H](O[C@@H]2O[C@H](C)[C@@H](O)[C@H](N)[C@@H]2O)C[C@@H]2O[C@](O)(C[C@@H](O)C[C@@H](O)[C@H](O)CC[C@@H](O)C[C@@H](O)CC(=O)O[C@H]1C)C[C@H](O)[C@H]2C(=O)O [Amphotericin B, reference compound] | 0.04 | 0.03 | 0.04 | 0.01 | 0.01 |  |  |  |
| CCCCCCCCCCCCCCCC(=O)NC1CC(O)C(O)NC(=O)C2C(O)C(CO)CN2C(=O)C(CCC(N)=O)NC(=O)C(C(O)C(O)c2ccc(O)cc2)NC(=O)C2CC(O)CN2C(=O)C(C(C)O)NC1=O (stereo not drawn) [Cryptocandin] (Palmitoyl-[ξOrn(4,5-diOH)]T[Hyp][ξhTyr(βξ-OH,γξ-OH)]Q[X1]; lactam 1-C; configuration not given here) | >20 | >20 | 0.03 | 2.5 | 0.01 | little effect | little effect | promising results |

Source: patent US6613738B1, “Cyclic lipopeptide from Cryptosporiopsis quercina possessing antifungal activity” (HMV Corporation, priority 1998, dated 2003)
